Assay results taken from patent US20260374766A1, “METHODS FOR TREATING CANCER” (Antares Therapeutics, Inc., priority 2022, published 2026).

Key:
[1] = target: T1, p53 Y220C mutant protein (amino acid residues 94-293) (Homo sapiens, UniProt P04637, Y220C); test: Surface Plasmon Resonance (SPR) assay, Kd_kinetic; type: binding; details: SPR; p53 Y220C; read-out: SPR P53 Y220C KD kinetic
T1 construct: p53 Y220C mutant protein (amino acid residues 94-293)
How it was run: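 Binding measured by SPR on a Biacore 8K in running buffer of 50 mM Tris pH 7.5, 100 mM NaCl, 1 mM DTT, 0.01% Brij35, 0.05% Tween-20, 1% DMSO.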

p53 Y220C = p53 Y220C (Homo sapiens, UniProt P04637, Y220C); test: Luciferase Reporter Assay (Luc), p53 response element, NClH1299 cells with inducible p53 Y220C; type: cell-based; details: NClH1299 cells with inducible p53 Y220C, 6 hour; for AC50: read-out: Luc P53 Y220C AC50; for Emax: 10 uM tool compound as positive control
How it was run: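 Doxycycline (0.5 ug/mL, 24 h) induces the mutant before a 6-hour compound treatment. Reporter activity is then quantified by One-Glo luminescence.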

NUGC3 p53 Y220C = test: Cell Proliferation Assay (CellTiter-Glo, CTG), NUGC3 p53 Y220C; type: cell-based; details: Homo sapiens, NUGC-3, 120 h, NUGC3 cells; 5 days
How it was run: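 NClH1299 lines stably transduced with Tet-inducible p53 Y220C or R273H, plus NUGC3, were treated with compound for 5 days at 250-500 cells/well. IC50 derived from CellTiter-Glo luminescent signal after 10 min room-temperature incubation.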

H1299 p53 Y220C = test: Cell Proliferation Assay (CellTiter-Glo, CTG), H1299 p53 Y220C (NClH1299-inducible p53 Y220C); type: cell-based; details: Homo sapiens, NCI-H1299, 120 h, NClH1299-inducible p53 Y220C cells; 5 days
How it was run: (§1)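 Cells seeded at 250-500 per well and exposed to compound for 5 days. Viability read by CellTiter-Glo luminescence after 10 min at room temperature; IC50 calculated. H1299 lines carry Tet-One inducible p53 mutant constructs introduced by lentiviral transduction.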

H1299 p53 R273H = test: Cell Proliferation Assay (CellTiter-Glo, CTG), H1299 p53 R273H (NClH1299-inducible p53 R273H); type: cell-based; details: Homo sapiens, NCI-H1299, 120 h, NClH1299-inducible p53 R273H cells; 5 days
How it was run: as §1

T1 sequence (P04637 94-293, stated change not applied): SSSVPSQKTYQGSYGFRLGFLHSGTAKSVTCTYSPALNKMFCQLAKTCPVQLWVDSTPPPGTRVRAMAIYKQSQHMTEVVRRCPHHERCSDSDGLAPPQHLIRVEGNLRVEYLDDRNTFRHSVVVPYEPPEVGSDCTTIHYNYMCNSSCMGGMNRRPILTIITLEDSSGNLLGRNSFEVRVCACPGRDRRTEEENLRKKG

Row | Kd [1] [nM] | AC50 (p53 Y220C) [nM] | Emax (p53 Y220C) [%] | IC50 (H1299 p53 Y220C) [nM] | IC50 (H1299 p53 R273H) [nM] | Structure (SMILES) | IC50 (NUGC3 p53 Y220C) [nM]
1 | < 10 | < 750 | > 90 | < 750 | ≥ 10000 | [2H]C([2H])([2H])Oc1ccc(C(=O)NC)cc1NCC#Cc1cc2c(N[C@@H]3CCN(C)C[C@@H]3F)nccn2c1SC(F)(F)F [Example 470, 3-((3-(1-(((3S,4R)-3-fluoro-1-methylpiperidin-4-yl)amino)-6-((trifluoromethyl)thio)pyrrolo[1,2-a]pyrazin-7-yl)prop-2-yn-1-yl)amino)-4-(methoxy-d3)—N-methylbenzamide] | < 750
2 | < 10 | < 750 | > 90 | < 750 | ≥ 10000 | COc1ccc(C(=O)N[C@H]2C[C@@H](O)C2)cc1NCC#Cc1cc2c(N[C@@H]3CCN(C)C[C@@H]3F)cccn2c1SC(F)(F)F [Example 471] | < 750
3 | < 10 | < 750 | > 90 | < 750 | ≥ 10000 | CNC(=O)c1ccc(O)c(NCC#Cc2cc3c(N[C@@H]4CCN(C)C[C@@H]4F)cccn3c2SC(F)(F)F)c1 [Example 472] | < 750
4 | < 10 | < 750 | > 90 | < 750 | ≥ 10000 | COc1ccc(C(=O)N[C@H](C)[C@@H](C)O)cc1NCC#Cc1cc2c(N[C@@H]3CCN(C)C[C@@H]3F)cccn2c1SC(F)(F)F [Example 473] | < 750
5 | < 10 | < 750 | > 90 | < 750 | 8000 to 10000 | COc1cc(C(=O)NC[C@H](C)O)ccc1NCC#Cc1cc2c(N[C@@H]3CCN(C)C[C@@H]3F)cccn2c1SC(F)(F)F [Example 475, 4-{[3-(8-{[(3S,4R)-3-fluoro-1-methylpiperidin-4-yl]amino}-3-[(trifluoromethyl)sulfanyl]indolizin-2-yl)prop-2-yn-1-yl]amino}-N-[(2S)-2-hydroxypropyl]-3-methoxybenzamide] | < 750
6 | < 10 | < 750 | 80 to 90 | < 750 | ≥ 10000 | CNC(=O)c1ccc(O)c(NCC#Cc2cc3c(N[C@@H]4CCNC[C@@H]4F)cccn3c2SC(F)(F)F)c1 [Example 477, 3-{[3-(8-{[(3S,4R)-3-fluoropiperidin-4-yl]amino}-3-[(trifluoromethyl)sulfanyl]indolizin-2-yl)prop-2-yn-1-yl]amino}-4-hydroxy-N-methylbenzamide] | < 750
7 | < 10 | < 750 | > 90 | < 750 | ≥ 10000 | CNC(=O)c1ccc(OC)c(NCC#Cc2cc3c(N[C@@H]4CNC[C@@H]4F)cccn3c2SC(F)(F)F)c1 [Example 478] | < 750
8 | < 10 | < 750 | > 90 | < 750 | ≥ 10000 | CNC(=O)c1cc(NCC#Cc2cc3c(N[C@@H]4CCN(C)C[C@@H]4F)cccn3c2SC(F)(F)F)c2cncn2c1 [Example 479] | < 750
9 | < 10 | < 750 | > 90 | < 750 | 5000 to 8000 | CNC(=O)c1ccc(OC)c(NCC#Cc2cc3c(N[C@@H]4CCN(C5COC5)C[C@@H]4F)cccn3c2SC(F)(F)F)c1 [Example 481, 3-{[3-(8-{[(3S,4R)-3-fluoro-1-(oxetan-3-yl)piperidin-4-yl]amino}-3-[(trifluoromethyl)sulfanyl]indolizin-2-yl)prop-2-yn-1-yl]amino}-4-methoxy-N-methylbenzamide] | < 750
10 | < 10 | < 750 | > 90 | < 750 | ≥ 10000 | COc1ccc(C(=O)N[C@H]2C[C@H](O)C2)cc1NCC#Cc1cc2c(N[C@@H]3CCN(C)C[C@@H]3F)cccn2c1SC(F)(F)F [Example 482] | < 750
11 | < 10 | < 750 | > 90 | < 750 | ≥ 10000 | CNC(=O)c1cc(NCC#Cc2cc3c(N[C@@H]4CCN(C)C[C@@H]4F)cccn3c2SC(F)(F)F)c2nncn2c1 [Example 483, 8-{[3-(8-{[(3S,4R)-3-fluoro-1-methylpiperidin-4-yl]amino}-3-[(trifluoromethyl)sulfanyl]indolizin-2-yl)prop-2-yn-1-yl]amino}-N-methyl-[1,2,4]triazolo[4,3-a]pyridine-6-carboxamide] | < 750
12 | < 10 | < 750 | > 90 | < 750 | 8000 to 10000 | O=C(NC[C@@H]1COCCO1)c1ccc(NCC#Cc2cc3c(N[C@@H]4CCNC[C@@H]4F)cccn3c2SC(F)(F)F)cc1 [Example 484] | < 750
13 | < 10 | < 750 | > 90 | < 750 | ≥ 10000 | C[C@@H](O)CNC(=O)c1ccc(OC2COC2)c(NCC#Cc2cc3c(N[C@@H]4CCN(C)C[C@@H]4F)cccn3c2SC(F)(F)F)c1 [Example 486] | < 750
14 | < 10 | < 750 | > 90 | < 750 | 5000 to 8000 | CNC(=O)c1ccc(NCC#Cc2cc3c(N[C@@H]4CCNC[C@@H]4F)cccn3c2SC(F)(F)F)c(OC)n1 [Example 488] | < 750
15 | < 10 | < 750 | > 90 | < 750 | 5000 to 8000 | CNC(=O)c1ccc(NCC#Cc2cc3c(N[C@@H]4CCNC[C@@H]4F)cccn3c2SC(F)(F)F)cc1 [Example 492, 4-{[3-(8-{[(3S,4R)-3-fluoropiperidin-4-yl]amino}-3-[(trifluoromethyl)sulfanyl]indolizin-2-yl)prop-2-yn-1-yl]amino}-N-methylbenzamide] | < 750
16 | < 10 | < 750 | > 90 | < 750 | ≥ 10000 | CNC(=O)c1ccc(NCC#Cc2cc3c(N[C@@H]4CCN(C)C[C@@H]4F)cccn3c2SC(F)(F)F)c(C(=O)NC)c1 [Example 493, 4-{[3-(8-{[(3S,4R)-3-fluoro-1-methylpiperidin-4-yl]amino}-3-[(trifluoromethyl)sulfanyl]indolizin-2-yl)prop-2-yn-1-yl]amino}-N1,N3-dimethylbenzene-1,3-dicarboxamide] | < 750
17 | < 10 | < 750 | > 90 | < 750 | 5000 to 8000 | CNC(=O)c1ccc(NCC#Cc2cc3c(N[C@@H]4CCN(C)C[C@@H]4F)cccn3c2SC(F)(F)F)c(C(=O)NC)n1 [Example 495, 3-{[3-(8-{[(3S,4R)-3-fluoro-1-methylpiperidin-4-yl]amino}-3-[(trifluoromethyl)sulfanyl]indolizin-2-yl)prop-2-yn-1-yl]amino}-N2,N6-dimethylpyridine-2,6-dicarboxamide] | < 750
18 | < 10 | < 750 | > 90 | < 750 | 5000 to 8000 | CNC(=O)c1cnc(C(=O)NC)c(NCC#Cc2cc3c(N[C@@H]4CCN(C)C[C@@H]4F)cccn3c2SC(F)(F)F)c1 [Example 496] | < 750
